Data taken from patent publication US10183913B2, “Pyrazole compound” (Sumitomo Dainippon Pharma Co., Ltd., priority 2010, dated 2019).
pKi: −log10 of the molar value. Where two headings read alike, the source gives them in different places.

Columns and labels:
[1] = target: human serotonin transporter (h-SERT) (Homo sapiens (Human), UniProt P31645); assay: [3H] citalopram binding assay to evaluate human serotonin reuptake inhibitory action (h-SERT binding assay)
Protocol: Citalopram Binding Assay to Evaluate Human Serotonin Reuptake Inhibitory Action
(§1) Preparation of the Cells and Membrane Preparations
In the experiment, human serotonin transporter (h-SERT) was expressed in CHO cells (h-SERT/CHO). The cells were incubated with F12 containing 10% FCS, 500 μg/mL Geneticin and 100 U/mL penicillin—100 μg/mL streptmycin (all manufactured by Sigma Aldrich) in an incubator containing 5% CO2; detached and collected using a SERT buffer [50 mmol/L Tris-HCl comprising 120 mmol/L NaCl and 5 mmol/L KCl (pH=7.4)]; homogenized with a homogenizer manufactured by Teflon (trademark); and then centrifuged (50,000×g, 30 min, 4° C.). The precipitate was suspended again in the appropriate amount of SERT buffer (to give a membrane preparation), and stored at −80° C. until used. The amount of protein in the membrane preparation was assayed by Dye Reagent Concentrate (manufactured by BIO-RAD) using bovine serum albumin (manufactured by Sigma Aldrich) as a standard.
1-2. h-SERT Binding Assay
The [^3H] citalopram binding was measured according to the method disclosed in Owens M. J. et al., J. Pharm. […] The solution was reacted at room temperature for 60 minutes, and then quickly suction-filtered under reduced pressure through a glass fiber filter coated with 0.05% aq. polyethyleneimine. The glass fiber filter was washed twice with […] of the SERT buffer, placed in a plastic vial containing 4 mL of liquid scintillator (ACS-II, manufactured by Amersham) or Ecoscint A (manufactured by National Diagnostics), and the remaining radioactivity on the filter paper was assayed with a liquid scintillation counter.

[2] = target: T1, human serotonin 2C receptor (h-5-HT2C) (Homo sapiens (Human), UniProt P28335); assay: 5-HT2C receptor agonistic action assay (FLIPR Calcium 4 Assay kit, h-5-HT2C/CHO cells); type: cell-based
T1 sequence (P28335 whole entry, looked up): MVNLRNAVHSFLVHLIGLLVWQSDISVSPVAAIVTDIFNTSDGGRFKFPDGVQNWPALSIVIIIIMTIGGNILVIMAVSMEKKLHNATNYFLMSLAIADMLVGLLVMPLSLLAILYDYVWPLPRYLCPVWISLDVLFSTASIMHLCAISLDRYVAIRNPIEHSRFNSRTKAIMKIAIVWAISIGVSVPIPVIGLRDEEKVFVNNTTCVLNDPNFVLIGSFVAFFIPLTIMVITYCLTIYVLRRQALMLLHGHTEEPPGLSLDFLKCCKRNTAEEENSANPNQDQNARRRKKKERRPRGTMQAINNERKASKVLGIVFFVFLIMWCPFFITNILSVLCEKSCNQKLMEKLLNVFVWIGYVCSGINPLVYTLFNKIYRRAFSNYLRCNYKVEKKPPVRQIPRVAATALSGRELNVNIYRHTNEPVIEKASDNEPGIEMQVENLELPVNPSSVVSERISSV
Protocol: 3-1. The Cells and Inoculation Thereof
In the experiment, human serotonin 2C receptor (h-5-HT2C) was expressed in CHO cells (h-5-HT2C/CHO). The cells were incubated with UltraCHO Lipuid (trademark) (manufactured by BioWhitakker) containing 1% FBS, 400 μg/mL Geneticin, 100 U/mL penicillin—100 μg/mL streptomycin (all manufactured by Sigma Aldrich) and 250 μg/mL Zeosin (manufactured by InvivoGen) in an incubator containing 5% CO2. On the day before using the cells, they were detached and collected using 250 μg/mL Trypsin solution (manufactured by Nacalai Tesque), then inoculated in a 96 well flat clear bottom black polystyrene TC-treated microplates (manufactured by Corning) at 40000 cells/well/60 μL in an incubator containing 5% CO2 for 16 hours to 24 hours.
3-2. 5-HT2C Receptor Agonistic Action Assay
The 5-HT2C receptor agonistic action was evaluated with FLIPR Calcium 4 Assay kit (manufactured by Molecular Devices). In specific, to the cells inoculated in the plate were added Component A of FLIPR Calcium 4 Assay kit dissolved in 100 mL of HHBP buffer (1×Hanks buffer, 20 mmol/L HEPES, both manufactured by Gibco) at an amount of 40 μL/well, and the cells were incubated in an incubator containing 5% CO2 for 1 hour. Then, the cells were set in FLIPR TETRA (trademark) (manufactured by Molecular Devices), to the cells was added the test material diluted with HHBP buffer, 2.5 mmol/L Probenecid (manufactured by Sigma) (concentration after dilution: 10 μmol/L) at an amount of 20 μL/well, and the fluorescence was measured. Then, in order to evaluate the antagonistic action of the test material, 20 μL/well of 5-HT solution (manufactured by Sigma, final concentration: 0.1 nmol/L) was further added to the cells, and the fluorescence was measured.
The 5-HT2C receptor agonistic action of each test material was calculated as a rate of fluorescence enhancement wherein 100% was defined as a value when the cells were given 10 μmol/L 5-HT. Furthermore, the 5-HT2C receptor inverse agonistic action was calculated as a rate of fluorescence decay wherein −100% was defined as a value when the cells were given 10 μmol/L SB206553 (manufactured by Sigma Aldrich). A lower value of the 5-HT2C receptor agonistic action of the test material means that the material has a higher antagonistic action. In particular, when the value of the 5-HT2C receptor agonistic action of the test material is below 0%, the material has an inverse agonistic action for 5-HT2C receptor.

[3] = target: T1, human serotonin 2C receptor (h-5-HT2C); assay: [3H] mesulergine binding assay to evaluate affinity for human 5-HT2C receptor; conditions: h-5-HT2C/CHO membrane preparation, read-out: Test Ex. 2: 5-HT2C receptor binding inhibition constant Ki
Protocol: Mesulergine Binding Assay to Evaluate Affinity for Human 5-HT2C Receptor
as §1
In the experiment, human serotonin 2C receptor (h-5-HT2C) was expressed in CHO cells (h-5-HT2C/CHO). The cells were incubated with UltraCHO Lipuid (trademark) (manufactured by BioWhitakker) containing 1% FBS, 400 μg/mL Geneticin, 100 U/mL penicillin—100 μg/mL streptomycin (all manufactured by Sigma Aldrich) and 250 μg/mL Zeosin (manufactured by InvivoGen) in an incubator containing 5% CO2; detached and collected using 50 mmol/L Tris-HCl (pH=7.4); homogenized with a homogenizer manufactured by Teflon (trademark); and then centrifuged (48,000×g, 25 min, 4° C.). The precipitate was suspended again in the appropriate amount of 50 mmol/L Tris-HCl (to give a membrane preparation), and stored at −80° C. until used. The amount of protein in the membrane preparation was assayed by Dye Reagent Concentrate (manufactured by BIO-RAD) using bovine serum albumin (manufactured by Sigma Aldrich) as a standard.
2-2. 5-HT2C Receptor Binding Assay
A solution of 200 μL in total was prepared by mixing 50 μL of [^3H] mesulergine (manufactured by GE Healthcare) diluted with 50 mmol/L Tris-HCl (pH=7.4) (final concentration: about 2 nmol/L), 149 μL of the h-5-HT2C/CHO membrane preparation (protein amount: 20 μg/well), and 1 μL of the test drug dissolved in dimethylsulfoxide. The solution was reacted at 37° C. for 30 minutes, and then quickly suction-filtered under reduced pressure through a glass fiber filter coated with 1% aq. bovine serum albumin. The glass fiber filter was washed twice with 250 μL of 50 mmol/L Tris-HCl (pH=7.4), placed in a plastic vial containing 4 mL of liquid scintillator (ACS-II, manufactured by Amersham) or Ecoscint A (manufactured by National Diagnostics), and the remaining radioactivity on the filter paper was assayed with a liquid scintillation counter. The non-specific binding of [^3H] mesulergine was defined as a binding amount in the presence of 10 μmol/L SB206553 (manufactured by Sigma Aldrich). The IC50 value was calculated according to Hill analysis, and the binding inhibition constant (Ki) was calculated according to the following formula: Binding inhibition constant (Ki)=IC50/(1+S/Kd) wherein S is a concentration of the added [^3H] mesulergine, and Kd is a binding dissociation constant of [^3H] mesulergine which was calculated from a saturated binding assay using the same cell membrane.

[4] = [3H] citalopram binding, read-out: Test Ex. 1: h-SERT binding inhibition constant Ki
[5] = test material 10 μmol/L, 100% = 10 μmol/L 5-HT, −100% = 10 μmol/L SB206553, below 0% = inverse agonistic action

For CCC(CC)n1nc(CNC)cc1OCc1ccc(F)cc1Cl [Example 253], the pKi [1, 4] was 8.82, the “Test Ex. 3: 5-HT2C receptor agonistic action” value [2, 5] was −86% and the pKi [3] was 7.51.
For CNCc1cc(OCc2ccc(F)cc2F)n(CC2CCCC2)n1 [Example 144, 1-{1-(cyclopentylmethyl)-5-[(2,4-difluorobenzyl)oxy]-1H-pyrazol-3-yl}-N-methylmethanamine], the pKi [1, 4] was 8.08, the “Test Ex. 3: 5-HT2C receptor agonistic action” value [2] was −127% and the pKi [3] was 8.66.
In the case of Cl.NCc1cc(OCc2cc(F)ccc2F)n(CC2CCCC2)n1 [Example 347, 1-{1-(Cyclopentylmethyl)-5-[(2,5-difluorobenzyl)oxy]-1H-pyrazol-3-yl}methanamine hydrochloride], the pKi [1] was 7.89, the “Test Ex. 3: 5-HT2C receptor agonistic action” value [2, 5] was −114% and the pKi [3] was 7.51.
With CNCc1cc(OCc2ccccc2)n(C(CF)C2CCCCC2)n1.Cl (stereo not drawn) [Example 330, 1-[5-(Benzyloxy)-1-(1-cyclohexyl-2-fluoroethyl)-1H-pyrazol-3-yl]-N-methylmethanamine hydrochloride] the pKi [1, 4] was 9.02, the “Test Ex. 3: 5-HT2C receptor agonistic action” value [2, 5] was −82% and the pKi [3] was 7.77.
CNCc1cc(OC(C)c2cccc(Cl)c2)n(CC2CCCCC2)n1.Cl (stereo not drawn) [Example 350, 1-{5-[1-(3-Chlorophenyl)ethoxy]-1-(cyclohexylmethyl)-1H-pyrazol-3-yl}-N-methylmethanamine hydrochloride] was tested, and the pKi [1, 4] was 7.28, the “Test Ex. 3: 5-HT2C receptor agonistic action” value [2, 5] was −92% and the pKi [3] was 7.96.
CNCc1cc(OCc2cc(F)ccc2F)n(CCC(C)(C)F)n1.Cl [Example 481, 1-{5-[(2,5-Difluorobenzyl)oxy]-1-(3-fluoro-3-methylbutyl)-1H-pyrazol-3-yl}-N-methylmethanamine hydrochloride] was tested, and the pKi [1, 4] was 9.07, the “Test Ex. 3: 5-HT2C receptor agonistic action” value [2] was −109% and the pKi [3] was 7.66.
For CNCc1cc(OCc2ccccc2)n(C(CO)C2CCCCC2)n1.Cl (stereo not drawn) [Example 328, 2-{5-(Benzyloxy)-3-[(methylamino)methyl]-1H-pyrazol-1-yl}-2-cyclohexyl-ethanol hydrochloride], the pKi [1] was 8.44, the “Test Ex. 3: 5-HT2C receptor agonistic action” value [2, 5] was −116% and the pKi [3] was 6.71.
CNCc1cc(OCc2ccccc2F)n(Cc2ccc(F)cc2)n1 [Example 218, 1-{1-(4-fluorobenzyl)-5-[(2-fluorobenzyl)oxy]-1H-pyrazol-3-yl}-N-methylmethanamine] was tested, and the pKi [1, 4] was 8.01, the “Test Ex. 3: 5-HT2C receptor agonistic action” value [2, 5] was −111% and the pKi [3] was 8.00.
CNCc1cc(OCc2ccccc2)n(C(C)C2CCCC2)n1.Cl (stereo not drawn) [Example 288, 1-[5-(Benzyloxy)-1-(1-cyclopentylethyl)-1H-pyrazol-3-yl]-N-methylmethanamine hydrochloride] was tested, and the pKi [1, 4] was 9.07, the “Test Ex. 3: 5-HT2C receptor agonistic action” value [2] was −80% and the pKi [3] was 7.72.
CNCc1cc(OCc2cc(Cl)ccc2F)n(CCC(C)(C)F)n1.Cl [Example 482, 1-{5-[(5-Chloro-2-fluorobenzyl)oxy]-1-(3-fluoro-3-methylbutyl)-1H-pyrazol-3-yl}-N-methylmethanamine hydrochloride] was tested, and the pKi [1, 4] was 8.54, the “Test Ex. 3: 5-HT2C receptor agonistic action” value [2, 5] was −116% and the pKi [3] was 8.59.
